Data taken from patent publication US11254686B1 (Corvus Pharmaceuticals, Inc., priority 2017, dated 2022).

Tests used:
adenosine A2B receptor = adenosine A2B receptor (Homo sapiens (Human), UniProt P29275); test: Adenosine receptor activity assay (Table 1), A2B activity; type: biochemical; settings: for IC50: read-out: Ave A2B cAMP IC50
adenosine A2A receptor = adenosine A2A receptor (Homo sapiens (Human), UniProt P29274); test: Adenosine receptor activity assay (Table 1), A2A activity; type: biochemical; settings: read-out: Ave A2A cAMP IC50
Chain of adenosine A2A receptor (P29274 whole entry): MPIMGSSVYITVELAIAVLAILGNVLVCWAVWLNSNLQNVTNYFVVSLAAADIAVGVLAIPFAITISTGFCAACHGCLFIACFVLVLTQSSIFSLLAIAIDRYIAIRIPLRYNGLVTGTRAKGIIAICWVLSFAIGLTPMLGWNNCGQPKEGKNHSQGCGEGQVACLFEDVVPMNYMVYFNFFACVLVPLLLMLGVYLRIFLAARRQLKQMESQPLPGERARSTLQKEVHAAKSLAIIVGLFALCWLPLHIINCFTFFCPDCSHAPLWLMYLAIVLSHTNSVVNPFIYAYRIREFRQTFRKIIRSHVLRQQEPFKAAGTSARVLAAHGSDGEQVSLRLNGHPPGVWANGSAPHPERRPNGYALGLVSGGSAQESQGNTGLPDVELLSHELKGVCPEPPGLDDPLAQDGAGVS

[1] = A2A activity to A2B activity (A2A/A2B)
[2] = A2A activity to the A2B activity, A2A/A2B

Chain of adenosine A2B receptor (P29275 whole entry): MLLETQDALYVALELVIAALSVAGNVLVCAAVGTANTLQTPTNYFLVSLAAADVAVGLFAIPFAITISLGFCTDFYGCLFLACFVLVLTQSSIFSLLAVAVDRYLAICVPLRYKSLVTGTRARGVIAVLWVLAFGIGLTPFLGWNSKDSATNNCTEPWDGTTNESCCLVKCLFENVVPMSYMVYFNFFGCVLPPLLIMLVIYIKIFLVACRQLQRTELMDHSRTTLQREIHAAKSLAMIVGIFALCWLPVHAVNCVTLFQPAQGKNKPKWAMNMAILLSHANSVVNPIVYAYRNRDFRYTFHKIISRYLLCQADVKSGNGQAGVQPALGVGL

Row | Compound | Ratio (adenosine A2B receptor; [1]) | IC50 (adenosine A2B receptor) | IC50 (adenosine A2A receptor) | Ratio (adenosine A2B receptor; [2])
1 | CCC(Nc1nc(C(=O)N2CC[C@@H](OC)C2)c2sccc2n1)c1cccnc1 (stereo partly drawn) [Example Z26, ((R)-3-Methoxypyrrolidin-1-yl)(2-((1-(pyridin-3-yl)propyl)amino)thieno[3,2-d]pyrimidin-4-yl)methanone] | 2.58 | 10 to 50 nM | 50 to 100 nM | 
2 | COc1cc(F)cc(CNc2nc(C(=O)N3CC(C)(O)C3)c3sccc3n2)c1 [Example Z136, (2-((3-Fluoro-5-methoxybenzyl)amino)thieno[3,2-d]pyrimidin-4-yl)(3-hydroxy-3-methylazetidin-1-yl)methanone] | 11.51 | 50 to 100 nM | > 500 nM | 
3 | COc1cncc(NC(=O)c2nc(N[C@@H](C)c3ccccn3)nc3ccsc23)c1 [Example Z307, (S)—N-(5-Methoxypyridin-3-yl)-2-((1-(pyridin-2-yl)ethyl)amino)thieno[3,2-d]pyrimidine-4-carboxamide] | 5.89 | 10 to 50 nM | 100 to 500 nM | 
4 | O=C(c1nc(NCc2cccnn2)nc2ccsc12)N1CCCC1 [Example Z43, (2-((Pyridazin-3-ylmethyl)amino)thieno[3,2-d]pyrimidin-4-yl)(pyrrolidin-1-yl)methanone] | 33.44 | 100 to 500 nM | > 500 nM | 
5 | CC(=O)N[C@H]1CCN(C(=O)c2nc(N[C@@H](C)c3cccnc3)nc3ccsc23)C1 [Example Z322, N—((S)-1-(2-(((S)-1-(Pyridin-3-yl)ethyl)amino)thieno[3,2-d]pyrimidine-4-carbonyl)pyrrolidin-3-yl)acetamide] | 6.33 | 100 to 500 nM | > 500 nM | 
6 | COc1cccc(CCNC(=O)c2nc(N[C@@H](C)c3ccccn3)nc3c(C)csc23)c1 [Example Z444, (S)—N-(3-Methoxyphenethyl)-7-methyl-2-((1-(pyridin-2-yl)ethyl)amino)thieno[3,2-d]pyrimidine-4-carboxamide] |  | 100 to 500 nM | 50 to 100 nM | 0.35
7 | C[C@H](Nc1nc(C(=O)N2CC[C@@H](NC(=O)OC(C)(C)C)C2)c2sccc2n1)c1ccccn1 [Example Z246, tert-Butyl ((R)-1-(2-(((S)-1-(pyridin-2-yl)ethyl)amino)thieno[3,2-d]pyrimidine-4-carbonyl)pyrrolidin-3-yl)carbamate] |  | 10 to 50 nM | 100 to 500 nM | 
8 | COCC(Nc1nc(C(=O)NC2COC2)c2sccc2n1)c1cccnc1 (stereo not shown) [Example Z216, 2-((2-Methoxy-1-(pyridin-3-yl)ethyl)amino)-N-(oxetan-3-yl)thieno[3,2-d]pyrimidine-4-carboxamide] | 5.35 | 10 to 50 nM | 100 to 500 nM | 
9 | C[C@H](Nc1nc(C(=O)NCCO)c2sc(N)cc2n1)c1ccccn1 [Example Z209, (S)-6-Amino-N-(2-hydroxyethyl)-2-((1-(pyridin-2-yl)ethyl)amino)thieno[3,2-d]pyrimidine-4-carboxamide] | 30.22 | 10 to 50 nM | > 500 nM | 
10 | NC(=O)c1cncc(CNc2nc(C(=O)N3CCCC3)c3sccc3n2)c1 [Example Z142, 5-(((4-(Pyrrolidine-1-carbonyl)thieno[3,2-d]pyrimidin-2-yl)amino)methyl)nicotinamide] | 2.76 | > 500 nM | > 500 nM | 
11 | C[C@H](Nc1nc(C(=O)N2CC3(COC3)C2)c2sccc2n1)c1cccnc1 [Example Z14, (S)-(2-((1-(Pyridin-3-yl)ethyl)amino)thieno[3,2-d]pyrimidin-4-yl)(2-oxa-6-azaspiro[3.3]heptan-6-yl)methanone] | 1.35 | 100 to 500 nM | 100 to 500 nM | 
12 | Cc1cc2nc(N[C@@H](C)c3cccnc3)nc(C(=O)N3CC(CNC(=O)OC(C)(C)C)C3)c2s1 [Example Z498, tert-Butyl (S)-((1-(6-methyl-2-((1-(pyridin-3-yl)ethyl)amino)thieno[3,2-d]pyrimidine-4-carbonyl)azetidin-3-yl)methyl)carbamate] |  | 100 to 500 nM | > 500 nM | 5.78
13 | O=C(NCC1CCN(Cc2ccccc2)CC1)c1nc(NCc2cncc(F)c2)nc2ccsc12 [Example Z68, N-((1-Benzylpiperidin-4-yl)methyl)-2-(((5-fluoropyridin-3-yl)methyl)amino)thieno[3,2-d]pyrimidine-4-carboxamide] |  | 50 to 100 nM | 50 to 100 nM | 
14 | C[C@H](Nc1nc(C(=O)N2CC[C@H](N)C2)c2sccc2n1)c1cncc(F)c1 [Example Z362, ((S)-3-Aminopyrrolidin-1-yl)(2-(((S)-1-(5-fluoropyridin-3-yl)ethyl)amino)thieno[3,2-d]pyrimidin-4-yl)methanone] | 95.57 | 10 to 50 nM | > 500 nM | 
15 | C[C@H](Nc1nc(C(=O)NCCc2ccc(S(N)(=O)=O)cc2)c2sccc2n1)c1cncc(F)c1 [Example Z454, (S)-2-((1-(5-Fluoropyridin-3-yl)ethyl)amino)-N-(4-sulfamoylphenethyl)thieno[3,2-d]pyrimidine-4-carboxamide] |  | 10 to 50 nM | > 500 nM | 38.75
16 | C[C@H](Nc1nc(C(=O)NCCc2cccc(Oc3ccccc3)c2)c2sccc2n1)c1cncc(F)c1 [Example Z417, (S)-2-((1-(5-Fluoropyridin-3-yl)ethyl)amino)-N-(3-phenoxyphenethyl)thieno[3,2-d]pyrimidine-4-carboxamide] |  | 100 to 500 nM | > 500 nM | 4.87
17 | COc1ccc(NC(=O)c2nc(N[C@@H](C)c3ccccn3)nc3ccsc23)cn1 [Example Z65, (S)—N-(6-Methoxypyridin-3-yl)-2-((1-(pyridin-2-yl)ethyl)amino)thieno[3,2-d]pyrimidine-4-carboxamide] | 14.95 | 50 to 100 nM | > 500 nM | 

Further lines, results first:

Row | Ratio (adenosine A2B receptor; [1]) | IC50 (adenosine A2B receptor) | IC50 (adenosine A2A receptor) | Ratio (adenosine A2B receptor; [2]) | Compound
18 | 3.91 | 10 to 50 nM | 50 to 100 nM |  | COCC(Nc1nc(C(=O)NC2CC2)c2sccc2n1)c1cccnc1 (stereo not shown) [Example Z202, N-Cyclopropyl-2-((2-methoxy-1-(pyridin-3-yl)ethyl)amino)thieno[3,2-d]pyrimidine-4-carboxamide]
19 | 18.79 | 50 to 100 nM | > 500 nM |  | C[C@H](Nc1nc(C(=O)N2CC[C@@H](O)C2)c2sc(N)cc2n1)c1ccccn1 [Example Z208, (6-Amino-2-(((S)-1-(pyridin-2-yl)ethyl)amino)thieno[3,2-d]pyrimidin-4-yl)((R)-3-hydroxypyrrolidin-1-yl)methanone]
20 | 1.07 | 100 to 500 nM | 100 to 500 nM |  | CO[C@H]1C[C@@H](NC(=O)c2nc(N[C@@H](C)c3cccnc3)nc3ccsc23)C1 [Example Z296, N-((1s,3R)-3-Methoxycyclobutyl)-2-(((S)-1-(pyridin-3-yl)ethyl)amino)thieno[3,2-d]pyrimidine-4-carboxamide]
21 | 4.57 | > 500 nM | > 500 nM |  | COc1ccc(CNC(=O)c2nc(N[C@@H](C)c3cccnc3)nc3ccsc23)cc1OC [Example Z33, (S)—N-(3,4-Dimethoxybenzyl)-2-((1-(pyridin-3-yl)ethyl)amino)thieno[3,2-d]pyrimidine-4-carboxamide]
22 | 9.16 | 50 to 100 nM | > 500 nM |  | O=C(c1nc(NCc2cncc(C(F)(F)F)c2)nc2ccsc12)N1CCC1 [Example Z257, Azetidin-1-yl(2-(((5-(trifluoromethyl)pyridin-3-yl)methyl)amino)thieno[3,2-d]pyrimidin-4-yl)methanone]
23 | 15.23 | 50 to 100 nM | > 500 nM |  | C[C@H](Nc1nc(C(=O)N2CC(O)C2)c2sc(N)cc2n1)c1cccnc1 [Example Z248, (S)-(6-Amino-2-((1-(pyridin-3-yl)ethyl)amino)thieno[3,2-d]pyrimidin-4-yl)(3-hydroxyazetidin-1-yl)methanone]
24 | 1.70 | 100 to 500 nM | 100 to 500 nM |  | O=C(c1nc(NCCc2ccccc2)nc2ccsc12)N1CCCC1 [Example Z258, (2-(Phenethylamino)thieno[3,2-d]pyrimidin-4-yl)(pyrrolidin-1-yl)methanone]
25 | 8.03 | 10 to 50 nM | 100 to 500 nM |  | C[C@H](Nc1nc(C(=O)N2CCCC2)c2sccc2n1)c1ccncc1 [Example Z344, (S)-(2-((1-(Pyridin-4-yl)ethyl)amino)thieno[3,2-d]pyrimidin-4-yl)(pyrrolidin-1-yl)methanone]
26 | 0.22 | > 500 nM | 100 to 500 nM |  | O=C(c1nc(NCc2ccc(C(F)(F)F)nc2)nc2ccsc12)N1CCCC1 [Example Z76, Pyrrolidin-1-yl(2-(((6-(trifluoromethyl)pyridin-3-yl)methyl)amino)thieno[3,2-d]pyrimidin-4-yl)methanone]
27 | 39.59 | 100 to 500 nM | > 500 nM |  | Cc1cc2nc(N[C@@H](C)c3cccnc3)nc(C(=O)NCC3CCNCC3)c2s1 [Example Z377, (S)-6-Methyl-N-(piperidin-4-ylmethyl)-2-((1-(pyridin-3-yl)ethyl)amino)thieno[3,2-d]pyrimidine-4-carboxamide]
28 | 1.09 | 50 to 100 nM | 50 to 100 nM |  | C[C@H](Nc1nc(C(=O)NC2CN(C(=O)OC(C)(C)C)C2)c2sccc2n1)c1ccccn1 [Example Z179, tert-Butyl (S)-3-(2-((1-(pyridin-2-yl)ethyl)amino)thieno[3,2-d]pyrimidine-4-carboxamido)azetidine-1-carboxylate]
29 |  | > 500 nM | 100 to 500 nM | 0.15 | COc1ccc(CNc2nc(C(=O)NCc3cccnc3)c3sccc3n2)cn1 [Example Z436, 2-(((6-Methoxypyridin-3-yl)methyl)amino)-N-(pyridin-3-ylmethyl)thieno[3,2-d]pyrimidine-4-carboxamide]
30 | 15.05 | 10 to 50 nM | 100 to 500 nM |  | (6-Amino-2-(((S)-1-(pyridin-2-yl)ethyl)amino)thieno[3,2-d]pyrimidin-4-yl)((R)-3-fluoropyrrolidin-1-yl)methanone [Example Z174]
